# Assay results taken from patent US6844336B2, “4-fluoroalkyl-2h-benzopyrans with anti-estogenic activity” (Schering AG, priority 2000, dated 2005).
# Test system: density of the trabecular bone in the proximal tibia of ovariectomized rats
# Test: Bone studies in ovariectomized rats (bone density of proximal tibia by pQCT)
# Parameters: species or system rat
# Conditions: three-month-old ovariectomized female rats, once daily for 28 days, 0.1 mg/kg/animal/day p.o., pQCT ex vivo
# Experimental: Three-month-old female rats are ovariectomized and treated once daily with the test compound immediately after the operation for 28 days. The administration is carried out subcutaneously in arachis oil/ethanol or it is carried out perorally. The animals are sacrificed on the day after the last administration, and tibiae as well as uteri are removed. The uteri are weighed, fixed and worked up for histological studies. The determination of the bone density is carried out ex vivo on prepared long bones using pQCT (quantitative computer tomography). The measurements are performed at a distance of 4-6 mm from the ball of the joint of the proximal tibia.
# By the ovariectomy, the density of the trabecular bone in the measured area is reduced by about 400 mg of Ca^2+/cm^3 to about 300 mg of Ca^2+/cm^3. By the treatment with a compound of general formula I according to this invention (dosage of 0.1 mg/kg/animal/day p.o.), the degradation of the bone density in the proximal tibia is prevented or inhibited.
smiles,measurement,value
"Oc1ccc(C2=C(C(F)(F)F)c3ccc(O)cc3OC2c2ccc(OCCN3CCCCC3)cc2)cc1 (single isomer, unassigned; (+)) [Example 1, (+)-7-Hydroxy-3-(4-hydroxyphenyl)-2-[4-(2-piperidin-1-ylethoxy)-penyl]-4(trifluoromethyl)-2H-1-benzopyran]",bone protection in comparison to the control that was subjected to a sham operation,73%
